Measurements from ChEMBL document CHEMBL1201862, “PubChem BioAssay data set” (2004).
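Where inhibition never reached the appropriate level, the endpoint shown equals the highest concentration tested. Otherwise, values were interpolated linearly from a five-concentration, 48-hour dose response in 96-well plates. Here, GI50 denotes the concentration required for 50% inhibition of growth.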 Calls of active or inactive are those of the source. Cut-off read from the data, not from the text of the source: active = GI50 up to about 1.1 µM and inactive = higher.

Experiments:
Assay in all cases: inhibition of tumour cell growth, NCI panel, 48 h
A549 = tested on: A549
NCI-H23 = tested on: NCI-H23
SW-620 = tested on: SW-620
Malme-3M = tested on: Malme-3M
K562 = tested on: K562
ACHN = tested on: ACHN
SK-MEL-5 = tested on: SK-MEL-5
HL-60 = tested on: HL-60
CCRF-CEM = tested on: CCRF-CEM
CAKI-1 = tested on: CAKI-1
EKVX = tested on: EKVX
HCT-116 = tested on: HCT-116
SK-MEL-28 = tested on: SK-MEL-28
HOP-62 = tested on: HOP-62
SF-295 = tested on: SF-295
HCC 2998 = tested on: HCC 2998
UACC-62 = tested on: UACC-62
A498 = tested on: A498
MDA-MB-231 = tested on: MDA-MB-231

Measured: GI50

C#CCN(Cc1ccc2nc(-c3ccccc3)c(Cl)nc2c1)c1cc(OC)c(OC)c(OC)c1
inactive: A549 86.9 µM | NCI-H23 > 100 µM | SW-620 15 µM | Malme-3M > 100 µM | K562 20.1 µM | ACHN 58.2 µM | SK-MEL-5 30.3 µM | HL-60 57.9 µM | CCRF-CEM 37.2 µM | CAKI-1 > 100 µM | EKVX > 100 µM | HCT-116 40.5 µM | SK-MEL-28 > 100 µM | HOP-62 > 100 µM | SF-295 > 100 µM | HCC 2998 > 100 µM | UACC-62 > 100 µM | A498 > 100 µM

O=C(O)c1oc(C(=O)O)c(C(=O)O)c1C(=O)O
inactive: A549 > 100 µM | NCI-H23 > 100 µM | SW-620 > 100 µM | Malme-3M > 100 µM | K562 > 100 µM | ACHN > 100 µM | SK-MEL-5 > 100 µM | MDA-MB-231 > 100 µM | HL-60 > 100 µM | CCRF-CEM > 100 µM | CAKI-1 > 100 µM | EKVX > 100 µM | HCT-116 > 100 µM | SK-MEL-28 > 100 µM | HOP-62 > 100 µM | SF-295 > 100 µM | UACC-62 > 100 µM | A498 > 100 µM

COC(=O)C(C)Oc1ccc(O)cc1 (centres undefined)
inactive: A549 63 µM | NCI-H23 > 100 µM | SW-620 34.9 µM | Malme-3M > 100 µM | K562 > 100 µM | ACHN > 100 µM | SK-MEL-5 > 100 µM | HL-60 > 100 µM | CCRF-CEM > 100 µM | CAKI-1 > 100 µM | EKVX > 100 µM | HCT-116 20.9 µM | SK-MEL-28 29.2 µM | HOP-62 > 100 µM | SF-295 > 100 µM | HCC 2998 > 100 µM | UACC-62 > 100 µM | A498 > 100 µM

COC(=O)/C=C(\C)CC/C=C(\C)CCC1OC1(C)C (centres undefined)
inactive: A549 12.9 µM | NCI-H23 13.2 µM | SW-620 13.6 µM | Malme-3M 14.6 µM | K562 3.11 µM | ACHN 13 µM | SK-MEL-5 11.4 µM | MDA-MB-231 12.1 µM | HL-60 1.87 µM | CCRF-CEM 4.65 µM | CAKI-1 11.7 µM | EKVX 13 µM | HCT-116 12.5 µM | SK-MEL-28 12.3 µM | HOP-62 15.8 µM | SF-295 11.3 µM | HCC 2998 9.66 µM | UACC-62 10.1 µM | A498 14.5 µM

C1CN2N3CCCC23C1 (centres undefined)
inactive: A549 > 100 µM | NCI-H23 > 100 µM | SW-620 > 100 µM | Malme-3M > 100 µM | K562 > 100 µM | ACHN > 100 µM | SK-MEL-5 > 100 µM | HL-60 > 100 µM | CCRF-CEM > 100 µM | CAKI-1 > 100 µM | EKVX > 100 µM | HCT-116 > 100 µM | SK-MEL-28 > 100 µM | HOP-62 > 100 µM | SF-295 > 100 µM | HCC 2998 > 100 µM | UACC-62 > 100 µM | A498 > 100 µM

N#Cc1cccnc1Cl
inactive: A549 > 100 µM | NCI-H23 > 100 µM | SW-620 > 100 µM | Malme-3M > 100 µM | K562 > 100 µM | ACHN > 100 µM | SK-MEL-5 > 100 µM | HL-60 > 100 µM | CCRF-CEM > 100 µM | CAKI-1 > 100 µM | EKVX > 100 µM | SK-MEL-28 > 100 µM | HOP-62 > 31.6 µM | SF-295 > 100 µM | HCC 2998 > 100 µM | UACC-62 > 100 µM | A498 > 100 µM

O=C(/C=C/c1ccccc1O)c1ccc([N+](=O)[O-])cc1
inactive: A549 22.5 µM | NCI-H23 11.3 µM | SW-620 16.6 µM | Malme-3M 44 µM | K562 20.9 µM | ACHN 11.9 µM | SK-MEL-5 20.1 µM | HL-60 16.4 µM | CCRF-CEM 15.8 µM | CAKI-1 18.5 µM | EKVX 10.6 µM | HCT-116 15.6 µM | SK-MEL-28 16.1 µM | HOP-62 16.4 µM | SF-295 21.7 µM | HCC 2998 16.5 µM | UACC-62 14.7 µM | A498 20.8 µM

CCOC(=O)N/N=C(/N)c1cccc(Br)c1
inactive: A549 > 100 µM | NCI-H23 > 100 µM | Malme-3M > 100 µM | K562 > 100 µM | ACHN > 100 µM | SK-MEL-5 > 100 µM | MDA-MB-231 > 100 µM | HL-60 > 100 µM | CCRF-CEM > 100 µM | CAKI-1 > 100 µM | EKVX 83 µM | HCT-116 > 100 µM | HOP-62 > 100 µM | SF-295 > 100 µM | HCC 2998 > 100 µM | UACC-62 > 100 µM

Cc1cc(NS(=O)(=O)c2ccc(Nc3c4ccccc4nc4c(C(=O)N5CCN(CCOS(C)(=O)=O)CC5)cccc34)cc2)no1
inactive: A549 > 100 µM | NCI-H23 > 100 µM | Malme-3M > 100 µM | K562 37.5 µM | ACHN > 100 µM | SK-MEL-5 > 100 µM | HL-60 > 100 µM | CCRF-CEM 43.4 µM | CAKI-1 > 100 µM | HCT-116 > 100 µM | SK-MEL-28 > 100 µM | HOP-62 > 100 µM | SF-295 > 100 µM | HCC 2998 > 100 µM | UACC-62 > 100 µM | A498 > 100 µM

CNc1nc(N)cc(O)n1
inactive: A549 > 100 µM | NCI-H23 > 100 µM | SW-620 > 100 µM | Malme-3M > 100 µM | K562 > 100 µM | ACHN > 100 µM | SK-MEL-5 > 100 µM | HL-60 > 100 µM | CCRF-CEM > 100 µM | CAKI-1 > 100 µM | EKVX > 100 µM | HCT-116 > 100 µM | SK-MEL-28 > 100 µM | HOP-62 > 100 µM | SF-295 > 100 µM | HCC 2998 > 100 µM | UACC-62 > 100 µM | A498 > 100 µM

O=C(CCc1ccccc1)On1nnc2ccccc2c1=O
inactive: A549 > 100 µM | NCI-H23 > 100 µM | SW-620 > 100 µM | Malme-3M > 100 µM | K562 > 100 µM | ACHN > 100 µM | SK-MEL-5 > 100 µM | HL-60 > 100 µM | CCRF-CEM > 100 µM | CAKI-1 30.8 µM | EKVX > 100 µM | HCT-116 > 100 µM | HOP-62 > 100 µM | SF-295 > 100 µM | HCC 2998 > 100 µM | UACC-62 > 100 µM | A498 38.3 µM

CCOC(=O)C(=O)C=P(c1ccccc1)(c1ccccc1)c1ccccc1
inactive: A549 > 100 µM | NCI-H23 > 100 µM | SW-620 > 100 µM | Malme-3M > 100 µM | K562 > 100 µM | ACHN > 100 µM | SK-MEL-5 > 100 µM | HL-60 > 100 µM | CCRF-CEM > 100 µM | CAKI-1 > 100 µM | EKVX > 100 µM | HCT-116 > 100 µM | SK-MEL-28 > 100 µM | HOP-62 > 100 µM | SF-295 > 100 µM | HCC 2998 > 100 µM | UACC-62 > 100 µM | A498 > 100 µM

COC(=O)/C1=C/C=C\C[C@@]2(C)CC(c3ccoc3)OC(=O)[C@@H]2CC[C@H]1C (some centres undefined)
inactive: A549 > 25 µM | NCI-H23 > 25 µM | SW-620 > 25 µM | Malme-3M > 25 µM | K562 > 25 µM | ACHN > 25 µM | SK-MEL-5 > 25 µM | MDA-MB-231 > 25 µM | HL-60 7.23 µM | CCRF-CEM > 25 µM | CAKI-1 > 25 µM | EKVX > 25 µM | HCT-116 > 25 µM | SK-MEL-28 > 25 µM | HOP-62 > 25 µM | SF-295 > 25 µM | HCC 2998 > 25 µM | UACC-62 > 25 µM | A498 > 25 µM

O=[PH](O)c1ccccn1
inactive: A549 > 100 µM | NCI-H23 > 100 µM | SW-620 > 100 µM | Malme-3M > 100 µM | K562 > 100 µM | ACHN > 100 µM | SK-MEL-5 > 100 µM | HL-60 > 100 µM | CCRF-CEM > 100 µM | CAKI-1 > 100 µM | EKVX > 100 µM | HCT-116 > 100 µM | SK-MEL-28 > 100 µM | HOP-62 > 100 µM | SF-295 > 100 µM | HCC 2998 > 100 µM | UACC-62 > 100 µM | A498 > 100 µM

CCOc1ccc(-c2oc(/C=N/NS(=O)(=O)c3ccc(C)cc3)c([N+](=O)[O-])c2-c2ccc(OCC)cc2)cc1
inactive: A549 19.4 µM | NCI-H23 13.5 µM | SW-620 2.61 µM | Malme-3M 19.1 µM | K562 3.79 µM | ACHN 10.9 µM | SK-MEL-5 6.76 µM | HL-60 4.03 µM | CCRF-CEM 2.54 µM | CAKI-1 10.3 µM | EKVX 26.1 µM | HCT-116 2.03 µM | SK-MEL-28 12.4 µM | HOP-62 21.3 µM | SF-295 14.4 µM | HCC 2998 14.4 µM | UACC-62 7.11 µM | A498 14.9 µM

C[C@H](CCC1SC1(C)C)C1CCC2(C)C3=C(CC[C@]12C)[C@@]1(C)CC[C@H](O)C(C)(C)C1CC3 (some centres undefined)
inactive: A549 > 100 µM | NCI-H23 > 100 µM | SW-620 > 100 µM | Malme-3M > 100 µM | K562 > 100 µM | ACHN 61 µM | SK-MEL-5 > 100 µM | HL-60 > 100 µM | CCRF-CEM > 100 µM | CAKI-1 > 100 µM | EKVX > 100 µM | HCT-116 > 100 µM | SK-MEL-28 > 100 µM | HOP-62 > 100 µM | SF-295 > 100 µM | HCC 2998 > 100 µM | UACC-62 > 100 µM | A498 > 100 µM
